Reference: PMC6023986, “Interactions Between Emodin and Efflux Transporters on Rat Enterocyte by a Validated Ussing Chamber Technique” (Frontiers in Pharmacology, 2018)
Read-outs that look alike come from different tables or passages of the source.

Legend:
MRP3 = molecular target: T1, MRP3 (Rattus norvegicus, UniProt O88563); experiment: Ussing chamber bidirectional transport, model validation for MRP3 (teniposide substrate, benzbromarone inhibitor); format: in vitro ADME; conditions: jejunum and ileum, benzbromarone 470 μM, teniposide as substrate
T1 construct: intestinal segments including duodenum, jejunum, ileum, and colon from anesthetized rats were immediately removed by surgery; from tissue; host or cells: stripped rat intestine (jejunum and ileum in validation; jejunum for the emodin studies)
T1 sequence (O88563 whole entry): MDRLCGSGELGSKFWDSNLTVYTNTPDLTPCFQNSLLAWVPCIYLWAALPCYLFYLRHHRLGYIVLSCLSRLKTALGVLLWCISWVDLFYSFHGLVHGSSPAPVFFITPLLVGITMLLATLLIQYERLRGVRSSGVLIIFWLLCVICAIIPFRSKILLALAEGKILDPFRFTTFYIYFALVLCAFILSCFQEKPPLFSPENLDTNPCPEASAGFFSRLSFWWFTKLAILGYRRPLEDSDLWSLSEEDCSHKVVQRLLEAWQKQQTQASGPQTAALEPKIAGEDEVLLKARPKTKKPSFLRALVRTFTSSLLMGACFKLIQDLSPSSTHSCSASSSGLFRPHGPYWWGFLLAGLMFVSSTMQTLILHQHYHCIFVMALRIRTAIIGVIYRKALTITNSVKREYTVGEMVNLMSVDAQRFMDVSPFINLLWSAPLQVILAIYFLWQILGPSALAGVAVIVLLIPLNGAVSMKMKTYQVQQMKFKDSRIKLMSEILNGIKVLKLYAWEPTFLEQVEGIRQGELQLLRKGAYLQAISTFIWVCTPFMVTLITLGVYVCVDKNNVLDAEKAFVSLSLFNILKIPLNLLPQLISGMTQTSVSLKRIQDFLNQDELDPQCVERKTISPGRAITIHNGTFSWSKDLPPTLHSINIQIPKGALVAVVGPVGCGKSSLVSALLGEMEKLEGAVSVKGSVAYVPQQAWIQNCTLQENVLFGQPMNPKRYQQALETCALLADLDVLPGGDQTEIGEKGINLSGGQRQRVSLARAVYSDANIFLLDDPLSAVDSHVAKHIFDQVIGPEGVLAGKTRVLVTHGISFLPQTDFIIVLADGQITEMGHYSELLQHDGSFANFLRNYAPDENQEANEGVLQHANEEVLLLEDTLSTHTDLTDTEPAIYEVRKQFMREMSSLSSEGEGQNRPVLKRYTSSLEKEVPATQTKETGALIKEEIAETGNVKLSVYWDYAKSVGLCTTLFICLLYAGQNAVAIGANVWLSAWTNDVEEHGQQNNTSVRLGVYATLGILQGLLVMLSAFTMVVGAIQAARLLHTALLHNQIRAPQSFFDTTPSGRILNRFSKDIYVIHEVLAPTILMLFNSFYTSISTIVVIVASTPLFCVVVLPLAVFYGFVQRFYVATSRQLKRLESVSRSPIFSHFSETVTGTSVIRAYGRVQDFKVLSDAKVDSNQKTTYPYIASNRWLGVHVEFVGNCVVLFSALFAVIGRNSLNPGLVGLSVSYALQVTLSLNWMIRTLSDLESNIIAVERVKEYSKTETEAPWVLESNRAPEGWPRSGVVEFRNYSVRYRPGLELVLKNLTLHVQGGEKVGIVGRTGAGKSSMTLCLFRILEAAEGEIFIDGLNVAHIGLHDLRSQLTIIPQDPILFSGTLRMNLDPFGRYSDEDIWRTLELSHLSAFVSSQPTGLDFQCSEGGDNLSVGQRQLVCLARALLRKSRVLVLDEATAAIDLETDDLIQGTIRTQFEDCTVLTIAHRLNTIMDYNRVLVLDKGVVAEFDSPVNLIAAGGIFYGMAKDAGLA
Source text: (§1) The four intestinal segments including duodenum, jejunum, ileum, and colon from anesthetized rats were immediately removed by surgery and washed with KRB solution. Each section of the intestinal segments was then placed in cold (on ice), bubbled (O2:CO2 95:5) KRB buffer. The four intestinal segments were then cut into 2 cm pieces, respectively, and serosas were removed by blunt dissection. Peyer’s patches were excluded from the experiment by visually identified. The stripped tissues were mounted in chambers with exposed surface area of 0.49 cm^2. Temperature of the chambers was maintained at 37 ± 0.5°C. Each of the half-cells in the chambers was filled with 5 mL fresh KRB buffer (pH 6.5). Tissue viability was continuously controlled by potential difference (PD). Tissue with electrical values less than 2 mV was refused ([Moazed and Hiebert, 2007]; [Heinen et al., 2013]).
(§2) Digoxin, pravastatin, and teniposide were employed as the test substrates of P-gp, MRP2, and MRP3. […] The experiments were started after 30 min equilibration time, by changing the KRB buffer on both sides; 5 mL KRB solution with different test compounds was filled in the mucosal or serosal compartment; meanwhile, equal volume fresh buffer was added to the other compartment. […] The bidirectional transport studies with specific inhibitors were assessed to validate this model whether or not suitable for P-gp, MRP2, and MRP3 studies. Samples were stored at –80°C until analysis ([Deusser et al., 2013]).
(§3) Frozen samples were adequately vortexed after thawing at the room temperature; 10 μL suitable IS solution was added to 200 μL samples; 200 μL methanol was added after a thorough vortex mixing for 30 s. The mixtures were then vortexed for 30 s and centrifuged at 15,000 rpm for 30 min. Finally, 5 μL of supernatant was injected into the LC-MS/MS system.
(§4) The quantifications of the compounds were performed by the TSQ Quantum Ultra Triple Quadrupole LC-MS/MS system from Thermo Fisher Scientific. Chromatography was carried out using an Agilent Poroshell 120 SB-C18 (2.7 μm, 2.1 mm × 100 mm) column with a Phenomenex AFO-8497 C18 pre-column, operating at 30°C. Adaptive gradient elution methods were applied for the analytes. The flow rate of the mobile phase was kept at 0.2 mL min^-1. Flow was directed to the ion spray interface. All measurements were carried out in negative ESI mode. Ion spray voltage was -2500 V. Vaporizer and capillary temperatures were set at 250 and 350°C, respectively. Auto sampler temperature was set at 10°C. Sheath gas and aux gas were set at 30 and 15 Arb, respectively. […] Peak integrations and calibrations were carried out using LC Quan 2.5.2 software from Thermo Fisher Scientific.
(§5) The Q (accumulative quantity), Papp (apparent permeability), Er (efflux ratio), Pr (Papp ratio), and Err (Er ratio) across the excited rat intestinal segments in the Ussing chamber were calculated using the following equations ([Li et al., 2012]; [Huang et al., 2016]): […]
(§6) where Cn (nM) is the concentration of the drug at the time point (n), Q (nM) is the accumulated absorption amount, A is the exposed surface area of the intestine (0.49 cm^2), dQ/dt (nM⋅s^-1) is the amount of the drug transported, and C0 (nM) is the initial concentration of the test drug. Experiments were performed in batches, so control groups were set as one for each batch.

P-gp [1] = experiment: Influence of emodin on P-gp function: digoxin bidirectional transport in the presence of emodin (Ussing chamber); format: in vitro ADME; conditions: rat jejunum; for Papp at 25 μM: rat
Source text: as §1
In this study, the effects of the three efflux transporters on emodin intestinal absorption were investigated. Meanwhile, the influence of emodin on intestinal P-gp, MRP2, and MRP3 functions were also discussed. Solutions with three concentrations (low, middle, and high) of emodin were filled in the mucosal or serosal compartment to measure the bidirectional transport characteristic. […] In the emodin impact experiments, digoxin, pravastatin, and teniposide were employed as P-gp, MRP2, and MRP3 substrates. Changes of the bidirectional transport characteristic were measured before and after adding emodin to the mucosal side.
as §3, §4, §5, §6

P-gp [2] = experiment: in vitro; conditions: rat
Experimental: The quantifications of the compounds were performed by the TSQ Quantum Ultra Triple Quadrupole LC-MS/MS system from Thermo Fisher Scientific. […] Adaptive gradient elution methods were applied for the analytes. The flow rate of the mobile phase was kept at 0.2 mL min^-1. Flow was directed to the ion spray interface. All measurements were carried out in negative ESI mode. Ion spray voltage was -2500 V. Vaporizer and capillary temperatures were set at 250 and 350°C, respectively. Auto sampler temperature was set at 10°C. Sheath gas and aux gas were set at 30 and 15 Arb, respectively. […] Peak integrations and calibrations were carried out using LC Quan 2.5.2 software from Thermo Fisher Scientific.

MRP2 = MRP2 (Rattus norvegicus, UniProt Q63120); experiment: Ussing chamber bidirectional transport, model validation for MRP2 (pravastatin substrate, MK571 inhibitor); format: in vitro ADME; set-up: intestinal segments including duodenum, jejunum, ileum, and colon from anesthetized rats were immediately removed by surgery; from tissue; host or cells: stripped rat intestine (jejunum and ileum in validation; jejunum for the emodin studies); conditions: jejunum and ileum, MK571 186 μM, pravastatin as substrate
Sequence of MRP2 (Q63120 whole entry, the tested form may be a part): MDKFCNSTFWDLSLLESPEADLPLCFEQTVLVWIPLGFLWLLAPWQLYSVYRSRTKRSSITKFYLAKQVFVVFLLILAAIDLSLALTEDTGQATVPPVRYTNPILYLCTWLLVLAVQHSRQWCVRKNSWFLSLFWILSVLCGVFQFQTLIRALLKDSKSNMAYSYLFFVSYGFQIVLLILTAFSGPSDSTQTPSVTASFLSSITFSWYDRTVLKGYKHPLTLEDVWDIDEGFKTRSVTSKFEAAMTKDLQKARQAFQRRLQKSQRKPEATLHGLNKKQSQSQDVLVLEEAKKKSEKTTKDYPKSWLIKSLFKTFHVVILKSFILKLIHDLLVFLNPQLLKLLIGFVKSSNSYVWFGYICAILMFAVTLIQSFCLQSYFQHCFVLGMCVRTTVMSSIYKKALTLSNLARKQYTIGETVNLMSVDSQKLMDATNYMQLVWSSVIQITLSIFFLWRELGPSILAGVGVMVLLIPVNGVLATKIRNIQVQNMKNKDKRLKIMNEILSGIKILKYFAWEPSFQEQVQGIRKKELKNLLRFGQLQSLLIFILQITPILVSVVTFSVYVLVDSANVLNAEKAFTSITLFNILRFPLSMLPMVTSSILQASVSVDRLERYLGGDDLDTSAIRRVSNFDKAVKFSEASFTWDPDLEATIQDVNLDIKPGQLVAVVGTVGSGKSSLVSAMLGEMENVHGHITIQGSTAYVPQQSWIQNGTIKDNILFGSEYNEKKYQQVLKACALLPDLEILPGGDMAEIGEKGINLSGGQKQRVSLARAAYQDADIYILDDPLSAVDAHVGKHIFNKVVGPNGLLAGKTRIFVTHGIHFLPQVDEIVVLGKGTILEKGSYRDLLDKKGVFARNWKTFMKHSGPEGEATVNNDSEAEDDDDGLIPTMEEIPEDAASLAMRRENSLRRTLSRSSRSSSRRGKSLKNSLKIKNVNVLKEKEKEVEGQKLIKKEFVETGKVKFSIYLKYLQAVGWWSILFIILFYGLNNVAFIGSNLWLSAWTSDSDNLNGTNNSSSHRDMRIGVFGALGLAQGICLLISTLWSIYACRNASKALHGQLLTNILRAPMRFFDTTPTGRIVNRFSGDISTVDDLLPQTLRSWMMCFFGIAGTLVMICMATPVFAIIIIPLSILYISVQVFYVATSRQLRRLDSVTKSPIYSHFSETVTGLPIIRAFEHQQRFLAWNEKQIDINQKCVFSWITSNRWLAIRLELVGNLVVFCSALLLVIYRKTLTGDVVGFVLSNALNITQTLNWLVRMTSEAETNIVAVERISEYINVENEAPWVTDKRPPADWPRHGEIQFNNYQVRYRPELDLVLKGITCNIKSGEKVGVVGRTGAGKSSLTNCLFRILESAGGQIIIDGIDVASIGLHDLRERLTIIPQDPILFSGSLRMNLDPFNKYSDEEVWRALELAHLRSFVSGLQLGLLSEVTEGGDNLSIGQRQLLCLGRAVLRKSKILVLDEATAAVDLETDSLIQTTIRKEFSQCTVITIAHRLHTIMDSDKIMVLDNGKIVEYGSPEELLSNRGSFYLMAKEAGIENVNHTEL
Source text: as §1, with “(PD).” for “(PD). Tissue with electrical values less than 2 mV was refused ([Moazed and Hiebert, 2007]; [Heinen et al., 2013]).”
as §2, with “studies.” for “studies. Samples were stored at –80°C until analysis ([Deusser et al., 2013]).”
as §3
as §4, with “Chromatography was carried out using an Agilent Poroshell 120 SB-C18 (2.7 μm, 2.1 mm × 100 mm) column with a Phenomenex AFO-8497 C18 pre-column, operating at 30°C.” left out
as §6

CCc1oc2ccccc2c1C(=O)c1cc(Br)c(O)c(Br)c1 [Benzbromarone]
Inhibition effect on MRP3 (MRP3): significant inhibition effect

C[C@H]1O[C@@H](O[C@H]2[C@@H](O)C[C@H](O[C@H]3[C@@H](O)C[C@H](O[C@H]4CC[C@@]5(C)[C@H](CC[C@@H]6[C@@H]5C[C@@H](O)[C@]5(C)[C@@H](C7=CC(=O)OC7)CC[C@]65O)C4)O[C@@H]3C)O[C@@H]2C)C[C@H](O)[C@@H]1O [Digoxin]
Change of Er values of digoxin after adding emodin (P-gp [1]; digoxin 25 μM, emodin 185, 370, 740 μM): significant higher
Papp at 25 μM (P-gp [1]; pH 6.5, digoxin 25 μM, without emodin, read-out: Papp M-S, control): 91.6 ± 41 ×10⁻⁶ cm/s
Papp at 25 μM (P-gp [1]; pH 6.5, digoxin 25 μM, without emodin, read-out: Papp S-M, control): 152 ± 43.9 ×10⁻⁶ cm/s
Papp at 25 μM (P-gp [1]; pH 6.5, with emodin 185 μM on mucosal side, digoxin 25 μM, emodin 185 μM on mucosal side, read-out: Papp M-S in the presence of emodin): 55.8 ± 29.8 ×10⁻⁶ cm/s
Papp at 25 μM (P-gp [1]; pH 6.5, with emodin 185 μM on mucosal side, digoxin 25 μM, emodin 185 μM on mucosal side, read-out: Papp S-M in the presence of emodin): 257 ± 47.6 ×10⁻⁶ cm/s
Papp at 25 μM (P-gp [1]; pH 6.5, with emodin 370 μM on mucosal side, digoxin 25 μM, emodin 370 μM on mucosal side, read-out: Papp M-S in the presence of emodin): 49 ± 12.8 ×10⁻⁶ cm/s
Papp at 25 μM (P-gp [1]; pH 6.5, with emodin 370 μM on mucosal side, digoxin 25 μM, emodin 370 μM on mucosal side, read-out: Papp S-M in the presence of emodin): 461 ± 191 ×10⁻⁶ cm/s
Papp at 25 μM (P-gp [1]; pH 6.5, with emodin 740 μM on mucosal side, digoxin 25 μM, emodin 740 μM on mucosal side, read-out: Papp M-S in the presence of emodin): 20.4 ± 7.6 ×10⁻⁶ cm/s
Papp at 25 μM (P-gp [1]; pH 6.5, with emodin 740 μM on mucosal side, digoxin 25 μM, emodin 740 μM on mucosal side, read-out: Papp S-M in the presence of emodin): 142 ± 29.7 ×10⁻⁶ cm/s
Papp (P-gp [2]; pH 6.5, Papp M-S, control, rat colon, without inhibitor): 63.1 ± 33.1 ×10⁻⁶ cm/s
Papp (P-gp [2]; pH 6.5, Papp M-S, control, rat duodenum, without inhibitor): 72.5 ± 32.8 ×10⁻⁶ cm/s
Papp (P-gp [2]; pH 6.5, Papp M-S, control, rat ileum, without inhibitor): 43.1 ± 15 ×10⁻⁶ cm/s
Papp (P-gp [2]; pH 6.5, Papp M-S, control, rat jejunum, without inhibitor): 57.8 ± 11.2 ×10⁻⁶ cm/s
Papp (P-gp [2]; pH 6.5, Papp S-M, control, rat colon, without inhibitor): 137 ± 66.3 ×10⁻⁶ cm/s
Papp (P-gp [2]; pH 6.5, Papp S-M, control, rat duodenum, without inhibitor): 186 ± 144 ×10⁻⁶ cm/s
Papp (P-gp [2]; pH 6.5, Papp S-M, control, rat ileum, without inhibitor): 228 ± 136 ×10⁻⁶ cm/s
Papp (P-gp [2]; pH 6.5, Papp S-M, control, rat jejunum, without inhibitor): 270 ± 125 ×10⁻⁶ cm/s
Papp (P-gp [2]; pH 6.5, with verapamil 220 μM, mucosal side, Papp M-S, with inhibitor, rat duodenum, with verapamil 220 μM on mucosal side): 45.3 ± 23.2 ×10⁻⁶ cm/s
Papp (P-gp [2]; pH 6.5, with verapamil 220 μM, mucosal side, Papp M-S, with inhibitor, rat ileum, with verapamil 220 μM on mucosal side): 191 ± 90.5 ×10⁻⁶ cm/s
Papp (P-gp [2]; pH 6.5, with verapamil 220 μM, mucosal side, Papp M-S, with inhibitor, rat jejunum, with verapamil 220 μM on mucosal side): 119 ± 58.5 ×10⁻⁶ cm/s
Papp (P-gp [2]; pH 6.5, with verapamil 220 μM, mucosal side, Papp S-M, with inhibitor, rat duodenum, with verapamil 220 μM on mucosal side): 79.7 ± 32.2 ×10⁻⁶ cm/s
Papp (P-gp [2]; pH 6.5, with verapamil 220 μM, mucosal side, Papp S-M, with inhibitor, rat ileum, with verapamil 220 μM on mucosal side): 157 ± 108 ×10⁻⁶ cm/s
Papp (P-gp [2]; pH 6.5, with verapamil 220 μM, mucosal side, Papp S-M, with inhibitor, rat jejunum, with verapamil 220 μM on mucosal side): 96.4 ± 86.4 ×10⁻⁶ cm/s
Papp (P-gp [2]; pH 6.5, with verapamil 440 μM, mucosal side, Papp M-S, with inhibitor, rat colon, with verapamil 440 μM on mucosal side): 189 ± 34.3 ×10⁻⁶ cm/s
Papp (P-gp [2]; pH 6.5, with verapamil 440 μM, mucosal side, Papp S-M, with inhibitor, rat colon, with verapamil 440 μM on mucosal side): 191 ± 40.1 ×10⁻⁶ cm/s

CN(C)C(=O)CCSC(SCCC(=O)O)c1cccc(/C=C/c2ccc3ccc(Cl)cc3n2)c1 (stereo not drawn) [MK571]
Inhibition effect on MRP2 (MRP2): significant inhibition effect
